Results as given in patent publication US8263755B2, “Synthesis of compounds useful as modulators of amyloid-beta production” (Satori Pharmaceuticals, Inc., priority 2006, dated 2012).

How the values were obtained:
[1] = stability experiments in solution; type: physicochemical
Description: However, it was stable in slightly acidic solution. Therefore, 2609-165-7 was re-processed on the Luna C8 column using 70% MeOH/30% water containing 0.05% AcOH as eluent to give 3.4 mg of compound 6 (2609-172-11).

amyloid-β (1-42) peptide = assay: amyloid-β protein profile by immunoprecipitation and mass spectrometry (IP-MS), protocol of Wang et al.; type: cell-based; conditions: in vitro
Description: (§1) Compounds of the present invention were assayed to determine their effect on the total ration of amyloid-β (1-42) peptide in vitro using an assay protocol substantially similar to that described by Wang et al., J. Biol. Chem. 1996, 50:31894-31902, The Profile of Soluble Amyloid β Protein in Cultured Cell Media, the entirety of which is hereby incorporated herein by reference. This assay quantifies amyloid-β protein using immunoprecipitation and mass spectrometry (IP-MS).

[2] = test system: 7W cells (APPwt) and 7PA2 cells (APPV717F); assay: method of Wang et al. in 7W cells (APPwt) and 7PA2 cells (APPV717F); type: cell-based
Description: as §1
Compound 6 was also assayed according to the method described in Wang et al., in 7W cells (APPwt) and 7PA2 cells (APPV717F). The APP717 mutations increase the relative amount of amyloid-β (1-42) peptide. In this assay, it was shown that compound 6 reduces amyloid-β (1-42) peptide while increasing amyloid-β (1-39) peptide.

For `CC(=O)O[C@@H]([C@H]1C[C@@H](C)C2=C(O1)[C@H](O)[C@@]1(C)[C@@H]3CC[C@H]4C(C)(C)[C@@H](O[C@@H]5OC[C@@H](O)[C@H](O)[C@H]5O)CC[C@@]45C[C@@]35CC[C@]21C)C(C)(C)O` [Compound 6, 24-O-Acetylhydroshengmanol 3-β-D-xylopyranoside (delta-16,17)-enol ether], which stability in solution ([1]; MeOH solution which is slightly basic) is on record?
The stability in solution was “deacetylation occurred”.

What about the stability in solution ([1]; slightly acidic solution) of the same compound?
Its stability in solution is “stable”.

What about the “effect on amyloid-β (1-37) peptide” value (amyloid-β (1-42) peptide) of the same compound?
The value was “increasing”.

And the “effect on amyloid-β (1-39) peptide” value (amyloid-β (1-42) peptide)?
The value was “increasing”.

What about the “effect on amyloid-β (1-42) peptide” value (amyloid-β (1-42) peptide) of the same compound?
The value was “reduced”.

And the “effect on amyloid-β (1-39) peptide” value [2]?
The value was “increasing”.

And the “effect on amyloid-β (1-42) peptide” value [2]?
The value was “reduces”.
